From US20190008797A1, “ESTROGEN RECEPTOR ALPHA COLIGANDS, AND METHODS OF USE THEREOF” (priority 2016, published 2019)
“Also recorded” adds a separate entry of the source. Like-named read-outs stand apart in the source and are kept apart here.

Legend:
hPR-B = target: T1, hPR-B (Homo sapiens, UniProt P06401); assay: TAT3-luciferase reporter, U2OS cells cotransfected with hPR-B; type: cell-based; details: 5 μM + 10 nM progesterone, 24 hours
T1 construct: expressed in transfected cells; host or cells: U2OS
T1 sequence (P06401 1-933): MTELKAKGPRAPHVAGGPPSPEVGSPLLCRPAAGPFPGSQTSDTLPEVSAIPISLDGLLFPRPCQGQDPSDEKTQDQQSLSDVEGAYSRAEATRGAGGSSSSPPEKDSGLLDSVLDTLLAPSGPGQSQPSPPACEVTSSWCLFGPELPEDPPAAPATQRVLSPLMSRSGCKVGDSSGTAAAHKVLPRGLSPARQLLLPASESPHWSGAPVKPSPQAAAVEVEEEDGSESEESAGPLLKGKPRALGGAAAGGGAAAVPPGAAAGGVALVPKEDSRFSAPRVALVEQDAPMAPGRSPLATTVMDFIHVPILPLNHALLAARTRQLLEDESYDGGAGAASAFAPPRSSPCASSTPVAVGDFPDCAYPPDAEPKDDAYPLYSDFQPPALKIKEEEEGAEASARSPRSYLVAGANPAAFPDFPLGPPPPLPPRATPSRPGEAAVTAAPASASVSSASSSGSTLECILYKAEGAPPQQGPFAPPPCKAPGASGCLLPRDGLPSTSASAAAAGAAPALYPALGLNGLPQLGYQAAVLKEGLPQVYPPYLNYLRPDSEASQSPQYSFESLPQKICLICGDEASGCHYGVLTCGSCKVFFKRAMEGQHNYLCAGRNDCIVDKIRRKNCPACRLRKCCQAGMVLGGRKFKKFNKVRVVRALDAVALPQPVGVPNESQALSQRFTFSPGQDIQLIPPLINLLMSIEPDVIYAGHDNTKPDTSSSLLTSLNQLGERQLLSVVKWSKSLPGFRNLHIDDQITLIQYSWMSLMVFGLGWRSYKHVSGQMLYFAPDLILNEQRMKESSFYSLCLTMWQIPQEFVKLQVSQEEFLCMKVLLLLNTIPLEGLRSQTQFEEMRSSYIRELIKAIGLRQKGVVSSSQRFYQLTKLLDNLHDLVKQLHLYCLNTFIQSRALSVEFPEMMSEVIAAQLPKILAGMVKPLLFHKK

U2OS-ERα cells = assay: NKG2E mRNA real-time PCR in U2OS-ERα cells; type: cell-based, human
Description: (FIG. 1a) Chemical structure of 2′, 3′, 4′-THC. (FIG. 1b) U2OS cells cotransfected with ERE tk-luciferase and ERα (left panel) or ERβ (right panel). After transfection the cells were treated for 24 hours with 10 nM estradiol and 5 μM 2′, 3′, 4′-THC alone or in combination. Cells were lysed and luciferase activity was measured. RLU is relative light units. Error bars are the Mean±SEM. **P≤0.01. […] The total cellular RNA was extracted and real-time PCR for KRT19 mRNA was performed as described in Materials and Methods. […] Error bars are ±SEM. *P≤0.05, **** P≤0.0001.
(FIGS. 6a, 6b) Gene expression of (FIG. 6a) KRT73 and (FIG. 6b) NKG2E in U2OS-ERα cells treated with 10 nM estradiol, 5 μM 2′, 3′, 4′-THC, 1μM ICI alone or in combination for 24 hours. […] Error bars are ±SEM. […] After transfection, luciferase activities were measured as described in the Methods. RLU is relative light units and the data shown are mean ±SEM. (FIG. 6c). […] After transfection, luciferase activities were measured as described in the Methods. RLU is relative light units and the data shown are mean ±SEM (FIG. 6d).

NKG2E promoter = assay: ChIP of ERα and SRC-2 at the NKG2E promoter in U2OS-ERα cells; type: cell-based, human; details: 2′,3′,4′-THC/E2 combination, 2 hr
Description: Cells were fixed with 11X formaldehyde solution for 10 minutes at 37° C. and the reaction was quenched for 2 minutes with 1.25M glycine solution as previously described (Cvoro, A., et al. Distinct Roles of Unliganded and Liganded Estrogen Receptors in Transcriptional Repression. Mol Cell 21, 555-564 (2006)). Cells were washed and collected in collecting buffer (100 mM Tris-HCl pH 9.4 and 10 mM dithiothreitol (DTT)) supplemented with a protease inhibitor cocktail. Pellets were frozen overnight at −80° C. then were thawed on ice and lysed (50 mM Tris pH 7.4, 150 mM NaCl, 10 mM ethylenediaminetetraacetic acid (EDTA), 0.5 mM ethylene glycol tetraacetic acid (EGTA), 0.5% Triton™ X-100 and 1X protease inhibitor cocktail). Cell lysates were centrifuged and cell pellet was resuspended in RIPA buffer. Samples were sonicated and supernatant was collected. Approximately 5% of each sample was taken for input and stored at 4° C. Immune complexes were collected using magnetic sepharose beads (GE Healthcare, Pittsburgh, Pa.) equilibrated in radioimmunoprecipitation assay (RIPA) buffer. Complexes were collected over a period of 3 to 4 hours rotating at 4° C. […]
FIGS. 2a-2f2′, 3′, 4′-THC behaves as a unique coagonist on gene expression in U2OS-ERα cells. […] Expression was assessed by up regulation or down regulation of 3-fold or more and a P-value≤0.05. […]

MCF-7 cells = assay: Flow cytometry of cellular DNA content in MCF-7 cells; type: cell-based, human; details: for IC50: Homo sapiens, MCF7, 24 h
Description: The cells were then washed with PBS, detached with trypsin and collected by centrifugation. The cell pellets were washed with cold PBS followed by centrifuge at room temperature and re-suspended in 500 μl PBS containing […] propidium iodide, 0.1% of Triton™ X-100, 0.1% of sodium citrate, and 10 μg/ml of RNase. Samples were then run on Cytomics™ FC-500 (Beckman Coulter) in the cell cytometry facility at UC Berkeley and data was analyzed using FlowJo 7.6.5.

ERα = ERα (Homo sapiens, UniProt P03372); assay: Competitive [3H]-E2 binding in U2OS-ERα cells; set-up: expressed in transfected cells; host or cells: U2OS
c-MYC = c-MYC mRNA (real-time PCR) and protein (Western blot) in MCF-7 cells; details: greater than tamoxifen

ERα, sequence (P03372 whole entry): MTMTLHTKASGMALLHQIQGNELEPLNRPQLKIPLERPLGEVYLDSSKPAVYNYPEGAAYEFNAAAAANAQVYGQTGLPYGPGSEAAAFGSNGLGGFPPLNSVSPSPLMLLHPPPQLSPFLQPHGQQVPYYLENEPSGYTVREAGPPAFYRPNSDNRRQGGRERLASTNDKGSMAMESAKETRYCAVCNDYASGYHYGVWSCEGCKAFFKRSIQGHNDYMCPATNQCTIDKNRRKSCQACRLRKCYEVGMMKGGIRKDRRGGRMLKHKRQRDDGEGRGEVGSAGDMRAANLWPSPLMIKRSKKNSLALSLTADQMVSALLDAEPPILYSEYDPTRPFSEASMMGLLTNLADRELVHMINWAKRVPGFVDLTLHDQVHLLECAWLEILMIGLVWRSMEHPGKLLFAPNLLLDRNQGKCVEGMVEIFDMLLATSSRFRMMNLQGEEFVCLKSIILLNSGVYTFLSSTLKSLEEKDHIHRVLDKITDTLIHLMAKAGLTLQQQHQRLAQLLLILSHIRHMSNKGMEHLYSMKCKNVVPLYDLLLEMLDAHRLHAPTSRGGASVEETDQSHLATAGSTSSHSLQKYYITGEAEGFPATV

## O=C(/C=C/c1ccccc1)c1ccc(O)c(O)c1O [2′, 3′, 4′-THC, 2′, 3′, 4′-trihydroxychalcone]
hPR-B
  synergy with receptor agonist: no synergy
U2OS-ERα cells; 10 nM E2, 5 μM 2′,3′,4′-THC, 1 μM tamoxifen or raloxifene, 24 hours
  NKG2E gene expression, compound alone: no effect
U2OS-ERα cells; 5 μM + 1 μM tamoxifen or raloxifene
  synergy in combination with tamoxifen or raloxifene: No synergy
U2OS-ERα cells; in combination with 10 nM E2, 24 hours
  effect on E2-induced NKG2E gene expression: synergistic activation
NKG2E promoter
  recruitment of ERα to the NKG2E promoter: increased recruitment
  recruitment of SRC-2 to the NKG2E promoter: increased recruitment
MCF-7 cells; 24 hours
  effect on E2-treated cells by DNA content / cell cycle: anti-proliferative action; also recorded: G1 cell cycle arrest
MCF-7 cells; read-out: IC50 for inhibition, G1 phase (cellular DNA content)
  IC50: 2900 nM
MCF-7 cells; read-out: IC50 for inhibition, S-phase (cellular DNA content)
  IC50: 2600 nM
ERα
  competing concentration relative to concentration required for synergy: 100 fold
ERα; 5 or 10 μM, 5 nM [3H]-E2, 1 h, 37°C
  increase of [3H]-E2 binding: ~2 fold
ERα; U2OS-ERα cells
  IC50 relative to E2 (higher): approximately 10,000 fold
ERα; no competition below, 5 nM [3H]-E2
  concentration at which the compound competes for [3H]-E2 binding: 100 µM
c-MYC; 5 μM + 10 nM E2, 4 hours
  effect on E2-stimulation of c-MYC mRNA: inhibited
c-MYC; increasing doses + 10 nM E2, 1 hour
  effect on E2-stimulation of c-MYC protein levels: inhibited
